From patent US20240390350A1, “PHENYL CORE COMPOUNDS AS MGLU5 NEGATIVE ALLOSTERIC MODULATORS AND METHODS OF MAKING AND USING THE SAME” (Vanderbilt University, priority 2021, published 2024)

Molecular target: T1, human mGlu5 (Homo sapiens, UniProt P41594)
T1 construct: expressed in transfected cells; host or cells: HEK 293A
Test: mGlu5 negative allosteric modulator Ca2+ flux assay in HEK 293A cells (Table 1)
Format: cell-based
Conditions: HEK 293A cells stably expressing mGlu5; Ca2+ flux (Fluo-4); decrease of glutamate EC80 response; read-out: hmGlu5 NAM IC50

T1 sequence (P41594 21-1212): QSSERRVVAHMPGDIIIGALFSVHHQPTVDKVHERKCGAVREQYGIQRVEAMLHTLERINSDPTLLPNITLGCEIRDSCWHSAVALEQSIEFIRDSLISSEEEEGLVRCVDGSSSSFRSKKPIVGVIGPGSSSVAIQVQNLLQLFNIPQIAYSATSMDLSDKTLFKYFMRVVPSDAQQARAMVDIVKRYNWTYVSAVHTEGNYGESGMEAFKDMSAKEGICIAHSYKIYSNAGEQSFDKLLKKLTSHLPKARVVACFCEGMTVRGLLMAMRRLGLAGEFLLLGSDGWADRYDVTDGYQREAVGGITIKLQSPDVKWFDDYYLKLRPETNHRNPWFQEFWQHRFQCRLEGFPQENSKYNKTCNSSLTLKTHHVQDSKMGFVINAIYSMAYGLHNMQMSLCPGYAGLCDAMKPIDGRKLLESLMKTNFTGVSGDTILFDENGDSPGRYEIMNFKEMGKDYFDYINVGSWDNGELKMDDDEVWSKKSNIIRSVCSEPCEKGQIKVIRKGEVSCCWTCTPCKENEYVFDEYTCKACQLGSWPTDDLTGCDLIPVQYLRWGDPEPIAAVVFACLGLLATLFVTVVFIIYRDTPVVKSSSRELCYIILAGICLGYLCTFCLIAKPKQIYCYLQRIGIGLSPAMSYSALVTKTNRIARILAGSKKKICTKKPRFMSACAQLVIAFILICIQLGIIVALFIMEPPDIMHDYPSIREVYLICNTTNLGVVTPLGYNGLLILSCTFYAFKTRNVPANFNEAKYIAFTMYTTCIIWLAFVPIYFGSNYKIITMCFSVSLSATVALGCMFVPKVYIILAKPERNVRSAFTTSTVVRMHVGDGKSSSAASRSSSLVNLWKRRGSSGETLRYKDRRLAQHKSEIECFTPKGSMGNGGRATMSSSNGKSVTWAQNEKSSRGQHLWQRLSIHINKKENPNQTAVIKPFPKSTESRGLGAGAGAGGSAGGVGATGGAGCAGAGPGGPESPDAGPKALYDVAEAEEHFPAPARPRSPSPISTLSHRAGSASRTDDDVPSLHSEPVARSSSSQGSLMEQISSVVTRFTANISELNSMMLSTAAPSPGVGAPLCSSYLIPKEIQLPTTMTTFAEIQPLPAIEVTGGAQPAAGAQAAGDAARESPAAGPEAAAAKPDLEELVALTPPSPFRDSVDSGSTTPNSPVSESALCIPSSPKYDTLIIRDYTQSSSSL

Structure (SMILES) | IC50 [nM]
O=C(Nc1ccc(F)cn1)c1cc(-c2cncc(F)c2)cc(F)c1F [Compound 34, 2,3-difluoro-N-(5-fluoropyridin-2-yl)-5-(5-fluoropyridin-3-yl)benzamide] | 161
Cc1nn(C)cc1-c1ccc(F)c(C(=O)Nc2ccc(F)cn2)c1 [Compound 26, 5-(1,3-dimethyl-1H-pyrazol-4-yl)-2-fluoro-N-(5-fluoropyridin-2-yl)benzamide] | > 10000
Cc1csc(NC(=O)c2cc(Cl)cc(-c3cnccc3C)c2)n1 [Compound 14, 3-chloro-5-(4-methylpyridin-3-yl)-N-(4-methylthiazol-2-yl)benzamide] | 631
Cc1csc(NC(=O)c2cc(-c3cnccc3C)ccc2F)n1 [Compound 1, 2-fluoro-5-(4-methylpyridin-3-yl)-N-(4-methylthiazol-2-yl)benzamide] | 734
Cc1cccc(NC(=O)c2cc(-c3cnccc3C)cc(C(F)(F)F)c2)n1 [Compound 20, N-(6-methylpyridin-2-yl)-3-(4-methylpyridin-3-yl)-5-(trifluoromethyl)benzamide] | 1160
Cc1nn(C)c(C)c1-c1cc(F)cc(C(=O)Nc2ccc(F)cn2)c1 [Compound 28, 3-fluoro-N-(5-fluoropyridin-2-yl)-5-(1,3,5-trimethyl-1H-pyrazol-4-yl)benzamide] | > 10000
Cc1ccncc1-c1cc(Cl)cc(C(=O)Nc2ccccn2)c1 [Compound 15, 3-chloro-5-(4-methylpyridin-3-yl)-N-(pyridin-2-yl)benzamide] | 328
Cc1cccc(NC(=O)c2cc(F)c(F)c(-c3cnccc3C)c2)n1 [Compound 30, 3,4-difluoro-N-(6-methylpyridin-2-yl)-5-(4-methylpyridin-3-yl)benzamide] | 101
Cc1ccncc1-c1cc(C(=O)Nc2cccc(Cl)n2)c(F)cc1F [Compound 48, N-(6-chloropyridin-2-yl)-2,4-difluoro-5-(4-methylpyridin-3-yl)benzamide] | 192
Cc1cccc(NC(=O)c2cc(F)c(F)c(-c3cc(C(F)(F)F)nn3C)c2)n1 [Compound 44, 3,4-difluoro-5-(1-methyl-3-(trifluoromethyl)-1H-pyrazol-5-yl)-N-(6-methylpyridin-2-yl)benzamide] | 3510
Cc1ccncc1-c1cc(C(=O)Nc2ccc(Cl)cn2)c(F)cc1F [Compound 39, N-(5-chloropyridin-2-yl)-2,4-difluoro-5-(4-methylpyridin-3-yl)benzamide] | 974
Cc1ccncc1-c1cc(C(=O)Nc2ccccn2)cc(C(F)(F)F)c1 [Compound 19, 3-(4-methylpyridin-3-yl)-N-(pyridin-2-yl)-5-(trifluoromethyl)benzamide] | 2590
Cc1csc(NC(=O)c2cc(-c3cnccc3C)c(F)cc2F)n1 [Compound 37, 2,4-difluoro-5-(4-methylpyridin-3-yl)-N-(4-methylthiazol-2-yl)benzamide] | 437
Cc1ccncc1-c1cc(C(=O)Nc2ccccn2)cc(F)c1F [Compound 49, 3,4-difluoro-5-(4-methylpyridin-3-yl)-N-(pyridin-2-yl)benzamide] | 412
Cc1ccncc1-c1cc(C(=O)Nc2ccc(F)cn2)cc(C(F)(F)F)c1 [Compound 21, N-(5-fluoropyridin-2-yl)-3-(4-methylpyridin-3-yl)-5-(trifluoromethyl)benzamide] | 3370
Cc1cccc(NC(=O)c2cc(F)c(F)c(-c3cncc(F)c3)c2)n1 [Compound 46, 3,4-difluoro-5-(5-fluoropyridin-3-yl)-N-(6-methylpyridin-2-yl)benzamide] | 94
Cc1ccncc1-c1cc(F)c(F)c(C(=O)Nc2ccc(F)cn2)c1 [Compound 9, 2,3-difluoro-N-(5-fluoropyridin-2-yl)-5-(4-methylpyridin-3-yl)benzamide] | 1030
Cc1ccncc1-c1cc(C#N)cc(C(=O)Nc2ccccn2)c1 [Compound 23, 3-cyano-5-(4-methylpyridin-3-yl)-N-(pyridin-2-yl)benzamide] | 1210

Now from value to compound:

IC50 [nM] | Structure (SMILES)
79 | Cc1ccncc1-c1cc(C(=O)Nc2cccc(Cl)n2)cc(F)c1F [Compound 50, N-(6-chloropyridin-2-yl)-3,4-difluoro-5-(4-methylpyridin-3-yl)benzamide]
273 | Cc1cccc(NC(=O)c2cc(C#N)cc(-c3cnccc3C)c2)n1 [Compound 24, 3-cyano-N-(6-methylpyridin-2-yl)-5-(4-methylpyridin-3-yl)benzamide]
95 | Cc1cc(C(=O)Nc2ccccn2)cc(-c2cnccc2C)c1 [Compound 5, 3-Methyl-5-(4-methylpyridin-3-yl)-N-(pyridin-2-yl)benzamide]
43 | Cc1cc(C(=O)Nc2cccc(C)n2)cc(-c2cnccc2C)c1 [Compound 4, 3-methyl-N-(6-methylpyridin-2-yl)-5-(4-methylpyridin-3-yl)benzamide]
104 | Cc1cccc(NC(=O)c2cc(Cl)cc(-c3cnccc3C)c2)n1 [Compound 16, 3-chloro-N-(6-methylpyridin-2-yl)-5-(4-methylpyridin-3-yl)benzamide]
6420 | Cc1ccncc1-c1cc(C(=O)Nc2ccc(F)cn2)c(F)cc1F [Compound 38, 2,4-difluoro-N-(5-fluoropyridin-2-yl)-5-(4-methylpyridin-3-yl)benzamide]
1060 | Cc1ccncc1-c1ccc(F)c(C(=O)Nc2ccc(F)cn2)c1 [Compound 12, 2-fluoro-N-(5-fluoropyridin-2-yl)-5-(4-methylpyridin-3-yl)benzamide]
> 10000 | Cn1nc(C(F)(F)F)cc1-c1cc(F)c(F)c(C(=O)Nc2ccc(F)cn2)c1 [Compound 36, 2,3-difluoro-N-(5-fluoropyridin-2-yl)-5-(1-methyl-3-(trifluoromethyl)-1H-pyrazol-5-yl)benzamide]
1230 | Cc1cccc(NC(=O)c2cc(F)c(F)c(-c3cnc(C)s3)c2)n1 [Compound 45, 3,4-difluoro-N-(6-methylpyridin-2-yl)-5-(2-methylthiazol-5-yl)benzamide]
540 | Cc1csc(NC(=O)c2cc(F)cc(-c3cnccc3C)c2)n1 [Compound 3, 3-fluoro-5-(4-methylpyridin-3-yl)-N-(4-methylthiazol-2-yl)benzamide]
989 | Cc1ccncc1-c1cc(C#N)cc(C(=O)Nc2ccc(F)cn2)c1 [Compound 25, 3-cyano-N-(5-fluoropyridin-2-yl)-5-(4-methylpyridin-3-yl)benzamide]
4440 | Cc1cccc(NC(=O)c2cc(F)c(F)c(-c3ccnn3C)c2)n1 [Compound 43, 3,4-difluoro-5-(1-methyl-1H-pyrazol-5-yl)-N-(6-methylpyridin-2-yl)benzamide]
136 | Cc1csc(NC(=O)c2cc(-c3cnccc3C)cc(F)c2F)n1 [Compound 2, 2,3-difluoro-5-(4-methylpyridin-3-yl)-N-(4-methylthiazol-2-yl)benzamide]
4890 | Cn1nccc1-c1cc(F)c(F)c(C(=O)Nc2ccc(F)cn2)c1 [Compound 32, 2,3-difluoro-N-(5-fluoropyridin-2-yl)-5-(1-methyl-1H-pyrazol-5-yl)benzamide]
322 | Cc1cccc(NC(=O)c2cc(-c3cnccc3C)cc(F)c2F)n1 [Compound 10, 2,3-difluoro-N-(6-methylpyridin-2-yl)-5-(4-methylpyridin-3-yl)benzamide]
370 | Cc1cc(C(=O)Nc2ccc(F)cn2)cc(-c2cnccc2C)c1 [Compound 6, N-(5-fluoropyridin-2-yl)-3-methyl-5-(4-methylpyridin-3-yl)benzamide]
